For data set [1], the target named is T1, eqBuChE (BuChE, E.C.3.1.1.8, selected from horse serum) (Equus caballus, UniProt P81908).
T1 construct: BuChE (E.C.3.1.1.8, selected from horse serum); purchased Sigma; host or cells: horse serum
In words: Cholinesterase inhibitory activity (DTNB/BTC), eqBuChE. Format: biochemical. The text has this:
Determination of Cholinesterase Inhibitory Activity:
Drugs and reagents: Test compounds, AChE (E.C.3.1.1.7, Type VI-S, selected from electric eel), BuChE (E.C.3.1.1.8, selected from horse serum), 5,5′-dithiobis(2-nitrobenzoic acid) (DTNB), acetylthiocholine (ATC) iodide and butyrylthiocholine (BTC) iodide were all purchased from Sigma; the positive control tacrine hydrochloride (9-amino-1,2,3,4-tetrahydroacridine hydrochloride hydrate) was purchased from BioTrend.
(§1) Instrument: THERMO Varioskan Flash full-wavelength multifunctional microplate reader.
(1) Formulation of buffer: 13.6 g of potassium dihydrogen phosphate was dissolved in 1 L of water, and pH was adjusted with potassium hydroxide to reach pH=8±0.1. The solution was stored at 4° C. for later use.
(2) Formulation of 0.01 M DTNB solution: 0.396 g of DTNB and 0.15 g of sodium bicarbonate were dissolved in 100 mL of water to prepare a 0.01 M DTNB solution, which was stored at −30° C. for later use.
(3) Formulation of 0.075 M ATC and BTC solutions: 0.217 g of ATC was dissolved in 10 mL of water to prepare a 0.075 M ATC solution, which was stored at −30° C. for later use; 0.237 g of BTC was dissolved in 10 mL of water to prepare a 0.075 M BTC solution, which was stored at −30° C. for later use.
(4) Formulation of AChE and BuChE solutions: 5,000 units of AChE were dissolved in 1 mL of 1% gel solution, and then diluted to 100 mL with water to prepare a AChE solution with a concentration of 5 units/mL, which was stored at −30° C. for later use; 5,000 units of BuChE were dissolved in 1 mL of 1% gel solution, and then diluted to 100 mL with water to prepare a BuChE solution with a concentration of 5 units/mL, which was stored at −30° C. for later use.
(5) Formulation of test substance solution: The test compound was dissolved in ethanol to obtain a solution with a concentration of 10^−3 M (ethanol would not affect the test results), and then diluted with water to prepare solutions with concentrations of […], 10^−5, 10^−6, 10^−7, 10^−8, 10^−9, and 10^−10 M, respectively.
Before the start of the experiment, all the solutions as used were warmed to room temperature, and the AChE and BuChE solutions were diluted 1-fold with water to prepare an enzyme solution with a concentration of 2.5 units/mL. The background UV absorbance was measured with a blank buffer (3 mL) as a subtraction value. Firstly, 100 μL of test compound solution, 100 μL of DTNB solution, and 100 μL of enzyme solution were added to 3 mL of buffer. After adding 20 μL of ATC or BTC solution to trigger the reaction, the time was recorded immediately and the test solution was mixted quickly and uniformly at the same time. After 2 minutes, the UV absorbance was measured at a wavelength of […]. The blank control group was measured with an equal volume of water instead of the test substance solution. All tests were performed three times in parallel. The UV absorption value of the blank control group was taken as 100%, the absorbance (OD value) of the test compound at each concentration was recorded, and GraphPad Prism™ (GraphPad Software, San Diego, CA, USA) software was used to analyze the results in a non-linear regression analysis model to calculate the corresponding IC50 values, as shown in Table 1.

The subject of another data set is PC-12 neural cell line. Kind of data set: Toxicity test in PC-12 nerve cell (MTT). Format: cell-based. The conditions noted are these: PC-12 cells; for SR(%) cell survival rate, 20 μM: 20 μM compound for 24 h; for SR(%) cell survival rate, 50 μM: 50 μM compound for 24 h. How it is done: Toxicity Test in PC-12 Nerve Cell:
Drugs and reagents: Test compounds, DMEM medium (01-050-1A) purchased from Biological Industries, FBS fetal bovine serum (04-001-1A) purchased from Biological Industries, MTT thiazolyl blue reagent (KGT525500) purchased from KeyGEN BioTECH.
as §1
About 3×10^3 PC-12 cells were evenly mixed in 0.1 mL of DMEM medium containing 10% FBS, and plated on a 96-well bottom plate, and incubated overnight at 37° C. in an environment containing 5% CO2. The 20 μM and 50 μM compounds diluted in 0.1 mL of DMEM medium were treated on the cells for 24 hours. Then MTT reagent was added to the well plate, and the plate was incubated at 37° C. for 2 to 4 hours. The color reaction was measured at 492 nm using a spectrophotometer (Thermo, multiskan FC).

For the next data set, the target named is hBuChE (Homo sapiens, UniProt P06276). In words: Cholinesterase inhibitory activity (DTNB/BTC), hBuChE. Format: biochemical. The conditions noted are these: mean ± SEM.
Setting [2] is: read-out: IC50 (nM) ± SEM eqBuChE.
[3] abbreviates: eqBuChE, mean ± SEM, three parallel tests.

Like-named read-outs stand apart in the source and are kept apart here.

T1 sequence (P81908 whole entry): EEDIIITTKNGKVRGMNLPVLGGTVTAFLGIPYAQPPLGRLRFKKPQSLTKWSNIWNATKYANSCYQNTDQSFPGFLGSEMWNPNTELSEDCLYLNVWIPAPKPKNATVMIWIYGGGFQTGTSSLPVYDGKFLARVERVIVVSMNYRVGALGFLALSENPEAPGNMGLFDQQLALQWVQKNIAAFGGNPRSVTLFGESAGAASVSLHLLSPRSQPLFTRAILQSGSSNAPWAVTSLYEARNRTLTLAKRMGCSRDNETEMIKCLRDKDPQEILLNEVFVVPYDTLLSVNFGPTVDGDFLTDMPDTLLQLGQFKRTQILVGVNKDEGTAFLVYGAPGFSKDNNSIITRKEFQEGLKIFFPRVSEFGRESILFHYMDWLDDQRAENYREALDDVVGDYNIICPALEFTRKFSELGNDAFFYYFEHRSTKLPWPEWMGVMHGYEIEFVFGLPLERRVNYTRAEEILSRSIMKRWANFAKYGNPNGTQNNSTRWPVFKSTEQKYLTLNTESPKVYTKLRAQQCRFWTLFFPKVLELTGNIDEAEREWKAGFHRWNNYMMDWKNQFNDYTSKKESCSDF

As to `CCN(CC)Cc1ccccc1CNC(=O)c1cccc(NC(=O)c2ccc(F)c(F)c2)c1` [Compound 16], the IC50 in data set [1] (setting [2]) worked out at 0.3 ± 0.07 nM; against hBuChE, 0.57 ± 0.1 nM. For the same molecule, in the data set with PC-12 neural cell line, the “SR(%) cell survival rate, 20 μM” value was 95.72%. Besides, the “SR(%) cell survival rate, 50 μM” value with PC-12 neural cell line turned out to be 89.53%.
Taken in the same sequence, the figures for `CCN(CC)Cc1ccccc1CNC(=O)c1cccc(NC(=O)c2ccc(Br)cc2)c1` [Compound 20, 3-(4-bromobenzamido)-N-(2-((diethylamino)methyl)benzyl)benzamide] were 0.98 ± 0.62 nM, 1.91 ± 0.59 nM, 94.00% and 85.21%.
In data set [1] (setting [3]), `CN(C)Cc1ccccc1NC(=O)c1cccc(NC(=O)c2cccs2)c1` [Compound 2, N-(3-((2-((dimethylamino)methyl)phenyl)carbamoyl)phenyl)thiophene-2-carboxamide] came in with an IC50 of 1910 ± 983 nM. Also, in the data set on PC-12 neural cell line, the “SR(%) cell survival rate, 20 μM” value was determined as 94.30% and the “SR(%) cell survival rate, 50 μM” value was 91.45%.
For the molecule `CCN(CC)Cc1ccccc1CNC(=O)c1cccc(NC(=O)c2ccc(C(F)(F)F)cc2)c1` [Compound 25], the IC50 in data set [1] (setting [2]) was 0.38 ± 0.1 nM. In the data set with PC-12 neural cell line, the “SR(%) cell survival rate, 20 μM” value is recorded as 97.58% and the “SR(%) cell survival rate, 50 μM” value was 91.57%. The same molecule showed an IC50 against hBuChE of 1.41 ± 0.01 nM.
As for `CCN(CC)Cc1ccc(CNC(=O)c2cccc(NC(=O)c3cccs3)c2)cc1` [Compound 38, N-(3-((4-((diethylamino)methyl)benzyl)carbamoyl)phenyl)thiophene-2-carboxamide], the IC50 in data set [1] (setting [2]) came out at 24.7 ± 10.6 nM. Moreover, in the data set on PC-12 neural cell line, the “SR(%) cell survival rate, 20 μM” value is reported as 93.67% and the “SR(%) cell survival rate, 50 μM” value came out at 84.23%. The molecule further came in with an IC50 at hBuChE of 75 ± 22.9 nM.
Taken in the same sequence, the figures for `CCN(CC)Cc1ccccc1CNC(=O)c1cccc(NC(=O)c2ccc(C)cc2)c1` [Compound 22, N-(2-((diethylamino)methyl)benzyl)-3-(4-methylbenzamido)benzamide] were 0.98 ± 0.21 nM, 93.35%, 89.42% and 1.54 ± 0.56 nM.
Take `CCN(CC)Cc1ccccc1CNC(=O)c1cccc(NC(=O)c2ccco2)c1` [Compound 6, N-(3-((2-((diethylamino)methyl)benzyl)carbamoyl)phenyl)furan-2-carboxamide]: the IC50 worked out at 0.79 ± 0.09 nM in data set [1] (setting [3]) and 0.63 ± 0.13 nM on hBuChE. Moreover, the “SR(%) cell survival rate, 20 μM” value with PC-12 neural cell line came out at 95.37%. For the same molecule, in the data set on PC-12 neural cell line, the “SR(%) cell survival rate, 50 μM” value was determined as 81.46%.
Take `CCCN(CCC)Cc1ccccc1NC(=O)c1cccc(NC(=O)c2cccs2)c1` [Compound 4, N-(3-((2-((dipropylamino)methyl)phenyl)carbamoyl)phenyl)thiophene-2-carboxamide]: in data set [1] (setting [2]), the IC50 is 122 ± 285 nM. For the same molecule, in the data set on PC-12 neural cell line, the “SR(%) cell survival rate, 20 μM” value is on record as 87.24% and the “SR(%) cell survival rate, 50 μM” value was 79.48%.
Taken in the same sequence, the figures for `CCN(CC)Cc1ccccc1CNC(=O)c1cccc(NC(=O)C2CCCCC2)c1` [Compound 10, 3-(cyclohexanecarboxamido)-N-(2-((diethylamino)methyl)benzyl)benzamide] were 122 ± 15.4 nM, 90.23% and 83.22%.
Take `O=C(NCc1ccccc1)c1cccc(NC(=O)c2cccs2)c1` [Compound 36]: the inhibition at 10 µM in data set [1] (read-out: inhibition rate of the compound on the target at a concentration of 10 μM (eqBuChE)) worked out at 27.2%. Moreover, in the data set with PC-12 neural cell line, the “SR(%) cell survival rate, 20 μM” value turned out to be 89.57% and the “SR(%) cell survival rate, 50 μM” value is reported as 77.42%.
In data set [1] (setting [3]), `CCN(CC)Cc1ccccc1NC(=O)c1cccc(NC(=O)c2cccs2)c1` [Compound 3, N-(3-((2-((diethylamino)methyl)phenyl)carbamoyl)phenyl)thiophene-2-carboxamide] showed an IC50 of 481 ± 110 nM. Moreover, in the data set on PC-12 neural cell line, the “SR(%) cell survival rate, 20 μM” value was 95.23% and the “SR(%) cell survival rate, 50 μM” value turned out to be 89.64%.

The IC50 is the concentration that inhibits the measured activity by half.

Source of the values: US12310944B2 (priority 2019, dated 2025).
